Test results as given in patent publication US20260083702A1, “INHALATION FORMULATION FOR TREATING IPF DISEASE AND PREPARATION METHOD THEREFOR” (SUZHOU INHAL PHARMA CO., LTD., priority 2023, published 2026).

Tests used:
[1] = tested on: mice with pulmonary fibrosis; assay: Weight measurement in bleomycin pulmonary fibrosis model (Experimental Example 2); assay type: in vivo, C57BL6J mice; conditions: compared with the model group; bleomycin 3 mg/kg intratracheal, treatment from week 1 for two weeks; FIG. 1
Excerpt: Establishment of pulmonary fibrosis model: 6-8 week old C57BL6J mice were selected and acclimatized for one week. In the model group, apremilast inhalation (Example 2) treatment group, roflumilast inhalation (Example 5) treatment group, crisaborole inhalation (Example 3) treatment group, apremilast oral administration treatment group (Comparative Example 1), and nintedanib oral administration treatment group (Comparative Example 2, nintedanib is a commonly used drug for treating IPF in the prior art), the animals were treated with bleomycin solution (3 mg/kg/50 μl) via intratracheal instillation on the first day, and in the control group, the animals were treated with an equal volume of physiological saline. Treatment started one week later and lasted for two weeks, and a total of three weeks was required. […]
(§1) Weight measurement: The weight of mice was measured and recorded at a fixed time on the morning each week, and the weight changes of mice in each group at different times were observed.
Statistical analysis: The results were statistically analyzed using Graphpad Prism 9.0 software for the experimental data of each group. […] The measurement data were expressed as mean #standard deviation (mean±SD). […]

[2] = tested on: mice with pulmonary fibrosis; assay: MASSON staining of lungs in bleomycin pulmonary fibrosis model (Experimental Example 4); assay type: in vivo, C57/BL6J mice; conditions: FIG. 7; for collagen fibers / collagen deposition (MASSON staining): compared with the model group; for lung damage / pathological changes (MASSON staining): inhalation groups compared with model group, oral groups compared with inhalation groups
Excerpt: (§2) Establishment of pulmonary fibrosis model: 6-8 week old C57/BL6J mice were selected and acclimatized for one week. The mice were divided into blank control group, model group, apremilast inhalation (Example 2) treatment group, roflumilast inhalation (Example 5) treatment group, crisaborole inhalation (Example 3) treatment group, ibudilast inhalation (Example 10) treatment group, difamilast inhalation (Example 9) treatment group, ibudilast oral administration (Comparative Example 3) treatment group, difamilast oral administration (Comparative Example 4) treatment group, and nintedanib oral administration (Comparative Example 2, nintedanib is a commonly used drug for treating IPF in the prior art) treatment group, with n=8 in each group. On the first day, the mice in the model group and the treatment groups were administered bleomycin solution (3 mg/kg/50 μl) via tracheal instillation, while the control group was treated with an equal volume of physiological saline. Treatment began in each treatment group one week later and lasted for two weeks, and a total of three weeks was required. The bleomycin solution was prepared by mixing bleomycin dry powder with sterile PBS to reach the required concentration (non-surgical method of intratracheal injection of bleomycin into mouse lungs: the mice were anesthetized by inhaling isoflurane, and suspended on a surgical stent at a 70° angle, and bleomycin was administered via intratracheal instillation using a 200 μl pipette).
(§3) HE staining and MASSON staining: Mouse lung tissue was fixed in 4% paraformaldehyde for 24 h, rinsed with running water overnight, dehydrated with alcohol as usual, embedded in paraffin, then serially cut into sections (5 μm), and stained with HE and MASSON respectively. After clearing with xylene, the sections were mounted with neutral resin. The sections were observed and photographed under an optical microscope.

[3] = tested on: mice with pulmonary fibrosis; assay: HE staining of lungs in bleomycin pulmonary fibrosis model (Experimental Example 2); assay type: in vivo, C57BL6J mice; conditions: FIG. 3; for alveolar structure (HE staining): compared with the model group
Excerpt: (§4) Establishment of pulmonary fibrosis model: 6-8 week old C57BL6J mice were selected and acclimatized for one week. In the model group, apremilast inhalation (Example 2) treatment group, roflumilast inhalation (Example 5) treatment group, crisaborole inhalation (Example 3) treatment group, apremilast oral administration treatment group (Comparative Example 1), and nintedanib oral administration treatment group (Comparative Example 2, nintedanib is a commonly used drug for treating IPF in the prior art), the animals were treated with bleomycin solution (3 mg/kg/50 μl) via intratracheal instillation on the first day, and in the control group, the animals were treated with an equal volume of physiological saline. Treatment started one week later and lasted for two weeks, and a total of three weeks was required. The bleomycin solution was prepared by mixing bleomycin dry powder with sterile PBS to reach the required concentration (non-surgical method of intratracheal injection of bleomycin into mouse lungs: the mice were anesthetized with isoflurane and suspended on a surgical stent at a 70° angle. Bleomycin was administered via intratracheal instillation using a 200 μl pipette).
as §3, with “alcohol conventionally,” for “alcohol as usual,”, “paraffin,” for “paraffin, then serially”, “into 5 μm sections,” for “into sections (5 μm),”, “The pathological changes in the lungs” for “The sections”

[4] = tested on: mice with pulmonary fibrosis; assay: Detection of MDA and HYP content in the lungs, bleomycin pulmonary fibrosis model (Experimental Example 2); assay type: in vivo, C57BL6J mice; conditions: compared with model group; FIG. 4
Excerpt: as §4
(§5) Detection of malondialdehyde (MDA) and hydroxyproline (HYP) content in the lungs: An appropriate amount of lung tissue was taken from the mice in each group, homogenized (the ground tissue was centrifuged at 3000 rpm for 10 min and the supernatant was taken for later use), and the MDA and HYP content in the lungs was detected according to the kit instructions. MDA stands for malondialdehyde, a product of lipid peroxidation that reflects oxidative damage, while HYP stands for hydroxyproline level, which reflects the level of pulmonary fibrosis.
(§6) Statistical analysis: The results were statistically analyzed using Graphpad Prism 9.0 software for the experimental data of each group. All experimental data underwent normality test. The measurement data were expressed as mean #standard deviation (mean±SD). One-way ANOVA was used to compare the means of multiple groups of samples. P<0.05 is considered statistically significant.

[5] = tested on: mice with pulmonary fibrosis; assay: MASSON staining of lungs in bleomycin pulmonary fibrosis model (Experimental Example 2); assay type: in vivo, C57BL6J mice; conditions: FIG. 2; for collagen fibers / collagen deposition (MASSON staining): compared with the model group; for pathological changes in the lungs (MASSON staining): inhalation groups compared with model group, oral groups compared with inhalation groups
Excerpt: as §4
as §3, with “alcohol conventionally,” for “alcohol as usual,”, “paraffin,” for “paraffin, then serially”, “into 5 μm sections,” for “into sections (5 μm),”, “The pathological changes in the lungs” for “The sections”

[6] = tested on: mice with pulmonary fibrosis; assay: Detection of MDA and HYP content in the lungs, bleomycin pulmonary fibrosis model (Experimental Example 4); assay type: in vivo, C57/BL6J mice; conditions: compared with model group; FIG. 9
Excerpt: as §2
as §5, with “instructions (MDA” for “instructions. MDA”, “damage;” for “damage, while”, “(hydroxyproline) level” for “stands for hydroxyproline level, which”, “degree” for “level”, “fibrotic deposition in the lungs).” for “pulmonary fibrosis.”
as §6, with “mean±standard” for “mean #standard”

[7] = tested on: mice with pulmonary fibrosis; assay: HE staining of lungs in bleomycin pulmonary fibrosis model (Experimental Example 4); assay type: in vivo, C57/BL6J mice; conditions: FIG. 8; for alveolar structure (HE staining): compared with the model group
Excerpt: as §2, §3

[8] = tested on: mice with pulmonary fibrosis; assay: Weight measurement in bleomycin pulmonary fibrosis model (Experimental Example 4); assay type: in vivo, C57/BL6J mice; conditions: FIGS. 5 and 6
Excerpt: as §2, §1
as §6, with “mean±standard” for “mean #standard”

[9] = 14th day compared to the 7th day after model establishment

Row | Structure (SMILES) | weight recovery [1] | collagen fibers / collagen deposition (MASSON staining) [2] | lung damage / pathological changes (MASSON staining) [2] | inflammatory cell infiltration (HE staining) [3] | alveolar structure (HE staining) [3] | HYP content in the lungs (collagen deposition) [4] | MDA content in the lungs (oxidative stress level) [4] | collagen fibers / collagen deposition (MASSON staining) [5] | pathological changes in the lungs (MASSON staining) [5] | HYP content in the lungs (collagen deposition) [6] | MDA content in the lungs (oxidative stress level) [6] | inflammatory cell infiltration (HE staining) [7] | alveolar structure (HE staining) [7] | weight recovery [8, 9] | weight recovery ([8]; compared with the model group)
1 | CCOc1cc([C@@H](CS(C)(=O)=O)N2C(=O)c3cccc(NC(C)=O)c3C2=O)ccc1OC [Comparative Example 1, apremilast] | significant weight recovery | reduced collagen deposition | slightly thickened alveolar interstitium and a few visible collagen fibers | a few inflammatory cell infiltrations | improved alveolar structure | slight tendency to alleviate MDA and HYP in the lungs, but the results were not statistically significant | slight tendency to alleviate MDA and HYP in the lungs, but the results were not statistically significant | reduced collagen deposition | slightly thickened alveolar interstitium and a few visible collagen fibers | slight downward trend, but this did not have statistical significance | slight downward trend, but this did not have statistical significance | a few inflammatory cell infiltrations | improved the alveolar structure | significant weight recovery | significant weight recovery
2 | COC(=O)c1ccc2c(c1)NC(=O)/C2=C(\Nc1ccc(N(C)C(=O)CN2CCN(C)CC2)cc1)c1ccccc1 [Comparative Example 2, nintedanib] | no significant difference in weight recovery | reduced collagen deposition | slightly thickened alveolar interstitium and a few visible collagen fibers | a few inflammatory cell infiltrations | improved alveolar structure | slight tendency to alleviate MDA and HYP in the lungs, but the results were not statistically significant | slight tendency to alleviate MDA and HYP in the lungs, but the results were not statistically significant | reduced collagen deposition | slightly thickened alveolar interstitium and a few visible collagen fibers | slight downward trend, but this did not have statistical significance | slight downward trend, but this did not have statistical significance | a few inflammatory cell infiltrations | improved the alveolar structure | did not show significant body recovery | no significant difference in weight recovery
3 | CCOc1ccccc1C(=O)NCc1coc(-c2ccc(OC(F)F)c(OC(C)C)c2)n1 [Comparative Example 4, difamilast] | – | reduced collagen deposition | slightly thickened alveolar interstitium and a few visible collagen fibers | – | – | – | – | – | – | slight downward trend, but this did not have statistical significance | slight downward trend, but this did not have statistical significance | a few inflammatory cell infiltrations | improved the alveolar structure | significant weight recovery | significant weight recovery
